Data taken from US12123009B2, “Methods and compositions for PPO herbicide tolerance in plants” (Monsanto Technology LLC, priority 2015, dated 2024).

Experiments:
[1] = system: maize (LH244), non-transgenic or expressing H_N10 (SEQ ID NO:4); assay: Transgenic Maize Herbicide Tolerance I (R0 plants sprayed); format: in vivo; details: 7 days
Source text: The plant transformation constructs were annotated construct 1, 6, 11, and 16. For maize in planta testing, immature maize (LH244) embryos were transformed with using Agrobacterium tumefaciens and standard methods known in the art.
Leaf samples were collected from R0 plants and screened by PCR to determine the number of copies of the transgene inserted into the plant genome. The plants containing a single copy (single copy) were selfed and outcrossed to generate R1 and F1 seed for future testing, respectively. Plants containing multiple copies (multi-copy) were sprayed as follows: (1) 5 g/ha S-3100 at approximately the V5 growth stage followed by 10 g/ha S-3100 at approximately the V7 growth stage, for a total application of 15 g/ha S-3100 or (2) 10 g/ha S-3100 at approximately the V5 growth stage. The average percentage of injury, on a scale of 0-100 with zero being no injury and 100 being complete crop death, was assessed 7 days after the final treatment for each batch.

[2] = system: transgenic maize expressing HemG PPO enzymes; assay: Transgenic Maize Herbicide Tolerance II (R0 plants sprayed); format: in vivo; details: 40 grams/ha; for Average Injury: V5, 7 days
Source text: H_N60 (SEQ ID NO:3). […] These five constructs had the same promoter plus leader plus intron combination, with two different targeting peptide (TP) sequences, and the same 3′UTR sequence. Leaf samples were taken from the R0 plants and analyzed by PCR to determine the transgene copy number. Single copy plants for up to 12 unique events per construct were transplanted to pots, selfed and outcrossed to generate R1 and F1 seed, respectively, for future testing. Multi-copy plants and extra single copy plants were sprayed with 40 grams/ha 5-3100 at approximately the V5 growth stage and injury ratings were taken 7 days after treatment. The average percent (%) injury for all plants expressing each PPO enzyme and the number of plants that were deemed highly tolerant (less than 10% injury) was noted, where each plant is a unique single or multi-copy transformant.

[3] = system: transgenic F1 maize expressing H_N10 (SEQ ID NO:4); assay: F1 maize greenhouse herbicide tolerance; format: in vivo; details: 40 grams/ha, V3, seven days
Method: The plants were treated with 40 grams/ha S-3100 at the V3 growth stage and injury ratings were taken seven days after treatment.

[4] = system: soybean (A3555), non-transgenic or expressing H_N10 (SEQ ID NO: 4); assay: R0 soybean sprayed with S-3100; format: in vivo; details: 5 g/ha, V3, 8 days
Method: In soybean, excised embryos (A3555) were transformed with the transformation constructs 1 and 11 using A. tumefaciens and standard methods known in the art. […] Regenerated R0 transgenic plantlets were grown in the greenhouse. […] The herbicide was sprayed at the V3 developmental stage with three fully developed trifoliate leaves and injury ratings were assessed 8 days after treatment. The percentage of plants that were deemed highly tolerant (15% or less injury) was noted.
The herbicide was sprayed at the V3 developmental stage with three fully developed trifoliate leaves and injury ratings taken 8 days after treatment. The percentage of plants that were deemed highly tolerant (25% or less injury) was noted.

[5] = system: R0 transgenic soybean expressing HemG PPO with targeting peptide; assay: R0 transgenic soybean herbicide tolerance: percent injury scores; format: in vivo; details: seven days
Source text: This permitted the side-by-side comparison of seven different HemG PPO enzymes with thirty-seven different targeting peptides using the same promoter and 3′UTR elements for gene expression. These plant transformation constructs were used to transform soybean excised embryos (germplasm A3555) using A. tumefaciens and standard methods known in the art. Four hundred explants were inoculated for each construct resulting in twelve containers per construct. A sterile PPO herbicide solution was used for herbicide tolerance testing. The herbicide solution consisted of 0.3 g of S-3100 in crop oil concentrate (5.0 mL) and 495 mL of deionized water. This was filtered through a 0.45 micron Nalgene® Rapid-Flow™ Tissue Culture Filter Unit and Surfactant-Free Cellulose Acetate membrane filter unit (VWR, Radnor, PA, USA). The resulting sterile solution was shaken before application.
The plantlets in the non-sprayed containers corresponding to constructs having a score of 2 were transplanted at approximately 7 weeks post transformation and grown as R0 plants using standard methods known in the art. Plantlets corresponding to non-tolerant scores of 0 and 1 were also grown to serve as negative controls. The R0 plants were grown in a greenhouse under long-day nursery conditions (18 hr light at 80° F. then 6 hr dark at 74° F.) for approximately four weeks. At eleven weeks, the R0 plants were sprayed with two passes of the same herbicide solution (0.3 g of 5-3100) described above. Herbicide injury ratings were collected seven days after treatment.
The results of the herbicide tolerance application at eleven weeks to the R0 plants confirmed the low percent injury rating scores observed in the high-throughput screen at five weeks. Any injury rating of 30% or above was equivalent to non-transgenic soybean injury ratings. A few of the constructs stood out as providing very good tolerance to the herbicide application. […] Data are provided in Table 10, where n.d. indicates the analysis was not conducted.

[6] = target: H_N60 (SEQ ID NO: 3), microbial HemG protoporphyrinogen oxidase; assay: PPO enzyme assay (bacterial extract); details: read-out: S-3100 IC50; 3 μM protogen; pH 7.4, 37° C.
[7] = target: H_N70 (SEQ ID NO: 8), microbial HemG protoporphyrinogen oxidase (Pantoea phytostimulans, UniProt A0ACH3N612); assay: PPO enzyme assay (bacterial extract); details: read-out: S-3100 IC50; 3 μM protogen; pH 7.4, 37° C.
[8] = H_N10 (SEQ ID NO: 4), construct 11

Sequence of H_N70 (SEQ ID NO: 8), microbial HemG protoporphyrinogen oxidase (A0ACH3N612 entry or part of it): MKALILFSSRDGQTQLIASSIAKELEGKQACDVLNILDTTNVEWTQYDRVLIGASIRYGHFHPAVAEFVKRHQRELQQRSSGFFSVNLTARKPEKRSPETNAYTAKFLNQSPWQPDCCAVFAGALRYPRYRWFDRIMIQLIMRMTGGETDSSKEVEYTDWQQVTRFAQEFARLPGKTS

In the case of `CCOC(=O)COc1ncccc1Oc1cc(-n2c(=O)cc(C(F)(F)F)n(C)c2=O)c(F)cc1Cl` [S-3100, ethyl [3-2-chloro-4-fluoro-5-(1-methyl-6-trifluoromethyl-2,4-dioxo-1,2,3,4-tetrahydropyrimidin-3-yl)phenoxy]-2-pyridyloxylacetate], the “Average Injury” value ([1]; H_N10, construct 6, Treatment 1: 5 g/ha V5 then 10 g/ha V7 (15 g/ha total)) is reported as 28.9%, the “Average Injury” value ([1]; H_N10, construct 16, Treatment 2: 10 g/ha V5) is reported as 24.2% and the “Average Injury” value ([1]; nontransgenic, Treatment 1: 5 g/ha V5 then 10 g/ha V7 (15 g/ha total)) is reported as 43.3%. For the same molecule, the “Average Injury” value ([1]; nontransgenic, Treatment 2: 10 g/ha V5) was 26.7%, the “Average Injury” value ([2]; H_N10 (SEQ ID NO 4), construct 6) was 39.5% and the “Highly Tolerant (less than 10% injury)” value ([2]; H_N10 (SEQ ID NO 4), construct 6, of 139 plants) was 31 plants. For the same molecule, the “Average Injury” value ([2]; H_N40 (SEQ ID NO 6), construct 23) was 47.0%, the “Highly Tolerant (less than 10% injury)” value ([2]; H_N40 (SEQ ID NO 6), construct 23, of 98 plants) was 53 plants and the “Average Injury” value ([2]; H_N60 (SEQ ID NO 3), construct 20) was 55.8%. For the same molecule, the “Highly Tolerant (less than 10% injury)” value ([2]; H_N60 (SEQ ID NO 3), construct 20, of 86 plants) was 19 plants, the “Average Injury” value ([2]; H_N90 (SEQ ID NO 1), construct 21) was 31.4% and the “Highly Tolerant (less than 10% injury)” value ([2]; H_N90 (SEQ ID NO 1), construct 21, of 99 plants) was 44 plants. For the same molecule, the “Average Injury” value ([2]; H_N110 (SEQ ID NO 10), construct 22) was 43.0%, the “Highly Tolerant (less than 10% injury)” value ([2]; H_N110 (SEQ ID NO 10), construct 22, of 94 plants) was 0 plants and the “events producing highly tolerant plants (10% or less injury)” value ([3]; H_N10, construct 6, out of 18 events) was 13 events. The “events producing highly tolerant plants (10% or less injury)” value ([3]; H_N10, construct 16) was “no events”, the average injury rating [4, 8] was 47% and the “highly tolerant plants (25% or less injury)” value [4, 8] was 30%. The average injury rating ([4]; non-transgenic) was 60%, the “highly tolerant plants (25% or less injury)” value ([4]; non-transgenic) was “no highly tolerant plants” and the percent injury score ([5]; H_N20, TP6) was 15%. It also gave a percent injury score ([5]; H_N20, TP7) of 20%, a percent injury score ([5]; H_N30, TP1) of 5% and a percent injury score ([5]; H_N40, TP1) of 5%. For the same molecule, the percent injury score ([5]; H_N40, TP4) was 15%, the percent injury score ([5]; H_N40, TP7) was 40% and the percent injury score ([5]; H_N40, TP8) was 30%. The percent injury score ([5]; H_N50, TP6) was 40%, the percent injury score ([5]; H_N90 (SEQ ID NO:11), TP20) was 5% and the percent injury score ([5]; H_N90 (SEQ ID NO:11), TP32) was 50%. For the same molecule, the percent injury score ([5]; H_N90, TP1) was 3%, the percent injury score ([5]; H_N90, TP2) was 35% and the percent injury score ([5]; H_N90, TP3) was 30%. For the same molecule, the percent injury score ([5]; H_N90, TP6) was 25%, the percent injury score ([5]; H_N90, TP7) was 15% and the percent injury score ([5]; H_N90, TP8) was 40%. For the same molecule, the percent injury score ([5]; H_N100, TP1) was 15%, the percent injury score ([5]; H_N100, TP6) was 30% and the percent injury score ([5]; H_N100, TP7) was 30%. It also gave an IC50 [6] greater than 100 µM and an IC50 [7] greater than 100 µM.
